Laboratory results: PMC9530963, “A cathelicidin antimicrobial peptide from Hydrophis cyanocinctus inhibits Zika virus infection by downregulating expression of a viral entry factor” (The Journal of Biological Chemistry, 2022)

Legend:
[1] = system: COX-2; test: COX-2 protein level in A549 cells (Western blot); assay type: cell-based, Homo sapiens; conditions: A549 cells, 1.25, 2.5, or 5 μM, 24 h
Protocol: Figure 6 Hc-CATH downregulates AXL via inhibiting COX-2/PGE2/AC/PKA pathway.A, effect of Hc-CATH on COX-2 protein level. A549 cells were incubated with Hc-CATH (1.25, 2.5, or 5 μM) or PBS (solvent of Hc-CATH) at 37 °C for 24 h, COX-2 protein level was examined by Western blot (upper panel) and analyzed by ImageJ (lower panel). B, effect of Hc-CATH on the enzymatic activity of COX-2. Hc-CATH (1.25, 2.5, 5, and 10 μM) or PBS was incubated with COX-2. After incubation at 37 °C for 10 min, the enzymatic activity of COX-2 was detected by enzyme activity inhibitor screening kit. Celecoxib (COX-2 inhibitor, 100 nM) was used as positive control. C, effect of Hc-CATH on PGE2 production. A549 cells were incubated with Hc-CATH (5 μM) at 37 °C. After incubation for 24 h, the level of PGE2 in the cell supernatant was detected by ELISA. D and E, effect of AC (D) and PKA (E) on Hc-CATH-induced AXL downregulation. A549 cells were incubated with forskolin (FSK, agonist of AC, 10 μM) or H89 (inhibitor of PKA, 5 μM) at 37 °C. After incubation for 1 h, the culture media were removed, cells were washed three times with PBS, and fresh culture media were added to cells in the presence of Hc-CATH (5 μM). After incubation for 24 h, AXL protein level was examined by Western blot (upper panel of D and E) and analyzed by ImageJ (lower panel of D and E). ns, not significant, ∗∗p < 0.01, and ∗∗∗p < 0.001. […]

[2] = system: TIM-1; test: TIM-1 level in Vero cells (Western blot); assay type: cell-based, Chlorocebus aethiops; conditions: 6, 12, and 24 h post Hc-CATH addition
Protocol: Figure 3 Hc-CATH downregulates AXL in Vero cell.A, schematic diagram of B and C. B, Vero cells were seeded in 24-well plates (5 × 10^4 cells/well) and cultured in DMEM containing 2% FBS. Hc-CATH (1.25, 2.5, and 5 μM), AC5 (2.5 μM), LL-37 (2.5 μM), or same volume of PBS (peptide solvent) was added to cells. After culture at 37 °C for 6, 12, and 24 h, the levels of ZIKV entry factors, including AXL, TYRO3, and TIM-1, were tested by Western blot, respectively. C, Vero cells were seeded in 8-well cover slip chambers (5 × 10^4 cells/well) and cultured in DMEM containing 2% FBS. Hc-CATH (1.25, 2.5, and 5 μM), AC5 (2.5 μM), LL-37 (2.5 μM), or same volume of PBS (peptide solvent) was added to cells. After culture at 37 °C for 24 h, the level of AXL was tested by immunofluorescence staining. The scale bar represents 50 μm. D, schematic diagram of E. E, Vero cells were seeded in 24-well plates (5 × 10^4 cells/well) and cultured in DMEM containing 2% FBS. Hc-CATH (1.25, 2.5, and 5 μM), AC5 (2.5 μM), LL-37 (2.5 μM), or same volume of PBS (peptide solvent) was added to cells and incubated at 37 °C for 2 h. […] Ratio of AXL to β-actin was analyzed by ImageJ.
Vero cells were incubated with Hc-CATH (1.25, 2.5, and 5 μM), AC5 (2.5 μM), LL-37 (2.5 μM), or PBS (solvent of peptide). […] The levels of ZIKV entry factors, including AXL, TYRO3, and TIM-1, were detected by WB analysis. […]

[3] = system: ZIKV; test: ZIKV replication stage, A549 cells (peptide added after infection); assay type: cell-based, ZIKV strain PRVABC59; conditions: 2.5 μM after ZIKV infection, 48 h; NS3 Western blot
Protocol: B–I, Vero (B–G), A549 (H), or U251 (I) cells were incubated with ZIKV (MOI = 1) at 37 °C for 2 h, washed with PBS, and transferred with fresh DMEM containing 2% FBS and Hc-CATH (2.5 μM), AC5 (2.5 μM), LL-37 (2.5 μM), or PBS (solvent of peptide). After culture at 37 °C for 48 h, intracellular ZIKV RNA (B), NS3 protein (C, D, H, and I), E protein level (E, the scale bar represents 50 μm), and extracellular ZIKV titer (F and G) were detected by qPCR, Western blot, immunofluorescence staining, and plaque-forming assay, respectively.
Vero cells were incubated with ZIKV (MOI = 1) at 37 °C for 2 h, washed three times with PBS, and transferred with fresh DMEM containing 2% FBS and Hc-CATH (2.5 μM), AC5 (2.5 μM), LL-37 (2.5 μM), or PBS. After culture at 37 °C for 48 h, intracellular ZIKV RNA, NS3 protein, E protein, and extracellular ZIKV titer were detected by qPCR, WB, IF, and plaque-forming assay, respectively. The effect of Hc-CATH on ZIKV replication stage was further tested in A549 and U251 cells under the same condition, and intracellular ZIKV NS3 protein was detected by WB.

In the case of “KFFKRLLKSVRRAVKKFRKKPRLIGLSTLL [Hc-CATH, cathelicidin antimicrobial peptide identified from the sea snake Hydrophis cyanocinctus]”, the “expression of COX-2” value [1] is reported as “did not influence the expression of COX-2”, the “level of TIM-1 in Vero cells” value [2] is reported as “did not obviously influence” and the “ZIKV infection in A549 cells, peptide added after infection” value [3] is reported as “did not inhibit ZIKV infection”.
